Results reported in publication PMC7934871 (JCI Insight, 2021).
Non-standard residues stand in square brackets, D forms with d. No end group written: not given here. pY = N[C@@H](Cc1ccc(OP(=O)(O)O)cc1)C(=O)O

Key:
[1] = tested on: pY705-STAT3; test: IL-6–induced pY705-STAT3 in splenic CD8+ T cells, Western blotting; assay type: cell-based; conditions: mouse splenic CD8+ T cells
[2] = target: STAT3 (Homo sapiens, UniProt P40763); test: Binding of PS-Gp130 and STAT3, immunoprecipitation and Western blotting; design: endogenous in cells; conditions: 1 μM, 4 hours prior to harvest
STAT3, sequence (P40763 whole entry, species assumed): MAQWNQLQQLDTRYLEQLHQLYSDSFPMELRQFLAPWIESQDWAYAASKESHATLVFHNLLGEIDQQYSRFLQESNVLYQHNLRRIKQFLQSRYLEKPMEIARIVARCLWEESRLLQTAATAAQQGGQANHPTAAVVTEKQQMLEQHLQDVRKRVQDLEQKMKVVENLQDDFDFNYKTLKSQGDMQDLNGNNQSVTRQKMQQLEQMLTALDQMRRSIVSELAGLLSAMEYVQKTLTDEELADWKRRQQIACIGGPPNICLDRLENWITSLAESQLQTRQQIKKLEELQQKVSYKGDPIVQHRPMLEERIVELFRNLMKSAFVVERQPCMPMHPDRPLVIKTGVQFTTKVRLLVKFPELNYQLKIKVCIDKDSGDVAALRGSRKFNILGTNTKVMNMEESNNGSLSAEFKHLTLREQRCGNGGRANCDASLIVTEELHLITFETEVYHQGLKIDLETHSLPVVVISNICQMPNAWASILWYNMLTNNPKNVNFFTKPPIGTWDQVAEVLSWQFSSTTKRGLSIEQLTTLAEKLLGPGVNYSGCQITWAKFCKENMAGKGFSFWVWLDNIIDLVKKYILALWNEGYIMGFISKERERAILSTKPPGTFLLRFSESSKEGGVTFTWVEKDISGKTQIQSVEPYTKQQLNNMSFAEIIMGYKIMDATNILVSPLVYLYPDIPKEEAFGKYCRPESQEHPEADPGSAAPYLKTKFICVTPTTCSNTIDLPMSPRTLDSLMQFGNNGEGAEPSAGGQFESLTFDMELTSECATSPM
Experimental: Figure 8 PS-Gp130 and PS-MYC blocking peptides efficiently internalize into tumor cells to exert their functions. (A) For 1 hour 1 μM of PS-conjugated MYC (PS-MYC) and Gp130 (PS-Gp130) were incubated with cancer cells. PS-scramble MYC (PS-SC-MYC) was used as a control for PS-MYC. The peptide uptake was visualized by confocal microscopy and quantified by flow cytometry. Data are representative of 3 independent experiments (n = 3). (B) Upper panel: The binding of PS-Gp130 and STAT3 was examined by immunoprecipitation and Western blotting. PO-Gp130 was used as a control. For 4 hours prior to harvest, 1 μM of peptide was incubated with cells. Lower panel: PS-Gp130 inhibits IL-6–induced phosphorylation of STAT3 and p44/42 but not EGF-mediated signaling. […] (C) Gene expression of STAT3 targets was examined by quantitative PCR after the treatment with 1 μM of PS-Gp130 with or without IL-6 stimulation as described above. […] (D) A total of 1 μM of PS-SC-MYC or PS-MYC was incubated with cells for 48 hours before the gene expression of MYC targets was examined by quantitative PCR. […]
Whole cell lysates or tissue homogenates were prepared by using RIPA lysis buffer (50 mM Tris at pH 7.4, 150 mM NaCl, 1 mM EDTA, 0.5% NP-40, 1 mM NaF, 15% glycerol, and 20 mM β-glycerophosphate). […] Protein amounts were determined by BCA using a Thermo Fisher Scientific kit. […]

| binding to STAT3 [2] | Substance | IL-6–induced STAT3 activation (pY705 phosphorylation) in CD8+ T cells [1] |
| --- | --- | --- |
|  | PDIPKEEAFGK685(Ac)YCRPESQEHPC-linker-T*C*C*A*T*G*A*G*C*T*T*C*C*T*G*A*T*G*C*T [PS-acet.-STAT3 peptide] | downregulated |
| strongly bound | PS-Gp130: PS-conjugated Gp130 peptide (amino acids 901–910) with phospho-Tyr905 (MPKS[pY]LPQTV; also: phosphorothioate oligonucleotide conjugate; UniProt P40189 901-910, looked up, fragment) |  |
